ChEMBL document CHEMBL5137099, “Discovery of Novel cccDNA Reducers toward the Cure of Hepatitis B Virus Infection” (J Med Chem, 2022)
Converted amounts (≈) assume the structure as drawn.

Experiments:
[1] = Metabolic stability in human microsomes assessed as clearance; type: ADME, Microsome; conditions: read-out: CLH
Hepatitis B virus [2] = test: Antiviral activity against HBV infected in human HepG2 cells assessed as reduction in HBeAg secretion incubated for 5 days by counter screen assay; type: functional, organism-based; conditions: HepG2, 120 h
[3] = Aqueous solubility of the compound; type: physicochemical; conditions: buffer
[4] = Permeability of the compound by PAMPA analysis; type: ADME; conditions: read-out: permeability
Hepatitis B virus [5] = test: Antiviral activity against HBV infected in human HepDES19 cells assessed as reduction in HBV cccDNA production by measuring inhibition of HBeAg secretion incubated for 5 days by ELISA; type: functional, organism-based; conditions: HepDES19, 120 h
[6] = Octanol-aqueous buffer distribution coefficient, log D of the compound at pH 7.4 by CAMDIS assay; type: physicochemical
[7] = Cytotoxicity against human HepDES19 cells assessed as reduction in cell viability measured after 5 days by CCK-8 assay; type: toxicity, cell-based; conditions: time 5 day
[8] = Therapeutic index, ratio of CC50 for cytotoxicity against human HepDES19 cells assessed as reduction in cell viability measured after 5 days by CCK-8 assay to IC50 for antiviral activity against HBV infected in human HepDES19 cells assessed as reduction in HBV cccDNA production by measuring inhibition of HBeAg secretion incubated for 5 days by ELISA; type: toxicity, cell-based; conditions: time 5 day, read-out: Ratio CC50/IC50

| Compound | CLint scaled [1] [mL/min/kg] | IC50 (Hepatitis B virus [2]) [µM] | solubility [3] [µg/mL] | Papp [4] [×10⁻⁶ cm/s] | IC50 (Hepatitis B virus [5]) [µM] | logD [6] | CC50 at 120 h [7] [µM] | selectivity ratio at 120 h [8] |
| --- | --- | --- | --- | --- | --- | --- | --- | --- |
| CCNc1ccc2c(=O)c3cccc(F)c3oc2c1 | 22.6 | > 50 | < 1 | 0.36 | 0.61 |  |  |  |
| Fc1cccc2c1Oc1cc(N3CCCC3)ccc1C2 |  | > 50 | < 1 |  | 3.99 |  |  |  |
| CCOc1ccc(Cl)c2oc3cc(N4CCC(C(=O)O)C4)ccc3c(=O)c12 (centres undefined) |  | > 50 | 330 (≈ 851 µM) | 0.7 | 2.86 | 0.93 |  |  |
| Clc1cccc2c1Oc1cc(N3CCCC3)ccc1C2 |  | > 50 | < 1 | 0.36 | 1.11 |  |  |  |
| O=c1c2ccc(N3CCCC3)cc2oc2c(Cl)cccc12 | 18.9 | > 50 | < 1 | 0.24 | 0.23 |  |  |  |
| COc1ccc(Cl)c2oc3cc(N4CCC(C(=O)O)C4)ccc3c(=O)c12 (centres undefined) |  | > 50 | > 415 | 0.68 | > 50 | 0.47 |  |  |
| O=C1Nc2ccc(N3CCC(C(=O)O)C3)cc2Oc2c(Cl)cccc21 (centres undefined) |  | > 50 | < 415 | 1 | > 50 |  |  |  |
| O=C(O)C1(C(F)(F)F)CCN(c2ccc3c(=O)c4cccc(Cl)c4oc3c2)C1 (centres undefined) |  | > 50 | > 510 | 1.78 | 27 | 1.26 |  |  |
| O=c1c2ccc(N3CCCCC3)cc2oc2c(Cl)cccc12 | 20.2 | > 50 | < 1 | 0.49 | 0.98 |  |  |  |
| NC1CCN(c2ccc3c(=O)c4cccc(F)c4oc3c2)C1 (centres undefined) | 6.7 | > 50 | 23 (≈ 77.1 µM) | 0.79 | 4.85 |  |  |  |
| CN1CCN(c2ccc3c(=O)c4cccc(F)c4oc3c2)CC1 | 18 | > 50 | 27 (≈ 86.4 µM) | 0.08 | 16.1 |  |  |  |
| Cc1ccc(Cl)c2oc3cc(N4CCC(C(=O)O)C4)ccc3c(=O)c12 (centres undefined) |  | > 50 | 252 (≈ 704 µM) | 0.59 | 1.12 | 1.75 |  |  |
| O=C(O)C1CCN(c2ccc3c(c2)Oc2c(Cl)cccc2S3(=O)=O)C1 (centres undefined) |  | > 50 | < 506 | 1.26 | > 50 |  |  |  |
| CC1(C)CN(c2ccc3c(=O)c4cccc(Cl)c4oc3c2)CC1C(=O)O (centres undefined) |  | > 50 | 294 (≈ 791 µM) | 0.98 | 12.7 |  |  |  |
| O=C(O)C1CCCN1c1ccc2c(=O)c3cccc(Cl)c3oc2c1 (centres undefined) | 6.2 | > 50 | 290 (≈ 844 µM) | 2.79 | 11.5 |  |  |  |
| O=C(O)C1CCN(c2cc3oc4c(Cl)cccc4c(=O)c3cn2)C1 (centres undefined) |  | > 50 | > 395 | 0.96 | 4.04 | < -0.5 |  |  |
| CCN(CC)c1ccc2c(=O)c3cccc(Cl)c3oc2c1 | 20.3 | > 50 | < 1 | 0.54 | 1.65 |  |  |  |
| O=c1c2ccc(N3CCCC3)cc2oc2c(F)cccc12 | 20.5 | > 50 | < 1 | 0.95 | 0.21 |  |  |  |
| CCNc1ccc2c(=O)c3cccc(Cl)c3oc2c1 | 15.7 | > 50 | < 1 | 6.73 | 0.17 |  |  |  |
| O=C(O)[C@H]1CN(c2ccc3c(=O)c4cccc(Cl)c4oc3c2)C[C@@H]1c1ccc(F)cc1 |  | > 50 |  |  | 7.39 |  |  |  |

| Compound | CLint scaled [1] [mL/min/kg] | IC50 (Hepatitis B virus [2]) [µM] | solubility [3] [µg/mL] | Papp [4] [×10⁻⁶ cm/s] | IC50 (Hepatitis B virus [5]) [µM] | logD [6] | CC50 at 120 h [7] [µM] | selectivity ratio at 120 h [8] |
| --- | --- | --- | --- | --- | --- | --- | --- | --- |
| CC(=O)Nc1ccc2c(=O)c3cccc(F)c3oc2c1 | 19.7 | > 50 | < 1 | 8.5 | 6.21 |  |  |  |
| O=C(O)CC1CCN(c2ccc3c(=O)c4cccc(Cl)c4oc3c2)C1 (centres undefined) |  | > 50 | < 465 | 1.55 | 6.62 |  |  |  |
| O=C1CCCN1c1ccc2c(=O)c3cccc(F)c3oc2c1 | 22 | > 50 | < 1 | 2.09 | 0.83 |  |  |  |
| O=C(O)c1cc2c(=O)c3cccc(Cl)c3oc2cc1N1CCCC1 | 6.7 | > 50 | 30 (≈ 87.3 µM) | 8.64 | > 100 |  |  |  |
| O=C1Nc2ccc(N3CCCC3)cc2Oc2c(Cl)cccc21 |  | > 50 | < 1 | 2.09 | 5.86 |  |  |  |
| OC1(C(F)(F)F)c2ccc(N3CCCC3)cc2Oc2c(Cl)cccc21 (centres undefined) |  | > 50 | < 1 | 6.73 | 19.2 |  |  |  |
| N#Cc1cc2c(=O)c3cccc(Cl)c3oc2cc1N1CCC(C(=O)O)C1 (centres undefined) |  | > 50 | > 430 |  | 8.23 | < -0.5 |  |  |
| O=c1c2ccc(N3CCCC3)nc2oc2c(F)cccc12 | 20.6 | > 50 |  | 9.1 | 19.2 |  |  |  |
| O=c1c2ccc(N3CCC(O)C3)cc2oc2c(F)cccc12 (centres undefined) | 17.5 | > 50 | < 1 | 1.49 | 0.43 |  |  |  |
| O=C(O)C1CCN(c2ccc3c(=O)c4cccc(Cl)c4oc3n2)C1 (centres undefined) | 6.2 | > 50 | 410 (≈ 1190 µM) | 1.55 | 50 |  |  |  |
| O=C1Nc2cccc(Cl)c2Oc2cc(N3CCC(C(=O)O)C3)ccc21 (centres undefined) |  | > 50 |  | 1.64 | 14.1 |  |  |  |
| Cn1ccnc1C(=O)Nc1ccc2c(=O)c3cccc(F)c3oc2c1 |  | > 50 |  |  | 0.49 |  | > 50 | > 102 |
| O=C(O)C1CCN(c2cc3oc4c(Cl)cccc4c(=O)c3cc2Cl)C1 (centres undefined) |  | > 50 | < 1 | 1.59 | 1.12 | 1.95 |  |  |
| O=C(O)C1CCCN(c2ccc3c(=O)c4cccc(Cl)c4oc3c2)C1 (centres undefined) | 6.2 | > 50 | < 474 | 2.43 | 3.82 |  |  |  |
| Clc1cccc2c1Oc1cc(N3CCCC3)ccc1C2C1COC1 (centres undefined) |  | > 50 |  | 0.09 | 7.33 |  |  |  |
| O=c1c2ccc(N3CCCCCC3)cc2oc2c(F)cccc12 | 6.2 | > 50 | 73 (≈ 234 µM) | 1.64 | 7.56 |  |  |  |
| CC1c2ccc(N3CCCC3)cc2Oc2c(Cl)cccc21 (centres undefined) |  | > 50 | < 1 | 0.015 | 1.5 |  |  |  |
| O=C(O)C1CCN(c2ccc3c(=O)c4c(O)ccc(Cl)c4oc3c2)C1 (centres undefined) |  | > 50 | 200 (≈ 556 µM) | 0.53 | 1.74 | 1.71 |  |  |
| CC1(C(=O)O)CCN(c2ccc3c(=O)c4cccc(Cl)c4oc3c2)C1 (centres undefined) |  | > 50 |  | 2.03 | 1.74 | 1.73 |  |  |
| O=c1c2ccc(N3CCOCC3)cc2oc2c(F)cccc12 | 20.8 | > 50 | < 1 | 1.8 | 2.1 |  |  |  |
